Assay results reported in the NIST ThermoML archive (doi:10.1021/je060355j).

Key:
[1] = excess molar enthalpy (molar enthalpy of mixing); xn = mol fraction of the nth substance listed; details: 101.32 kPa, Liquid
[2] = xn = mol fraction of the nth substance listed; details: 101.32 kPa, Liquid

CCOC=O [ethyl methanoate] + CCCCCC
Details | excess molar enthalpy [kcal/mol] | mass density [kg/m3]
[1], 291.15 K, x1 = 0.092 | 0.107 | –
[1], 291.15 K, x1 = 0.209 | 0.228 | –
[1], 291.15 K, x1 = 0.3175 | 0.305 | –
[1], 291.15 K, x1 = 0.4075 | 0.346 | –
[1], 291.15 K, x1 = 0.4677 | 0.364 | –
[1], 291.15 K, x1 = 0.5161 | 0.368 | –
[1], 291.15 K, x1 = 0.5681 | 0.365 | –
[1], 291.15 K, x1 = 0.6185 | 0.344 | –
[1], 291.15 K, x1 = 0.6714 | 0.319 | –
[1], 291.15 K, x1 = 0.7272 | 0.286 | –
[1], 291.15 K, x1 = 0.7841 | 0.243 | –
[1], 291.15 K, x1 = 0.843 | 0.188 | –
[1], 291.15 K, x1 = 0.9022 | 0.127 | –
[1], 291.15 K, x1 = 0.9514 | 0.0729 | –
[1], 318.15 K, x1 = 0.1003 | 0.149 | –
[1], 318.15 K, x1 = 0.1895 | 0.244 | –
[1], 318.15 K, x1 = 0.2842 | 0.323 | –
[1], 318.15 K, x1 = 0.3713 | 0.367 | –
[1], 318.15 K, x1 = 0.4495 | 0.389 | –
[1], 318.15 K, x1 = 0.5137 | 0.394 | –
[1], 318.15 K, x1 = 0.5599 | 0.387 | –
[1], 318.15 K, x1 = 0.5991 | 0.374 | –
[1], 318.15 K, x1 = 0.6795 | 0.337 | –
[1], 318.15 K, x1 = 0.7593 | 0.281 | –
[1], 318.15 K, x1 = 0.8299 | 0.216 | –
[1], 318.15 K, x1 = 0.8814 | 0.155 | –
[1], 318.15 K, x1 = 0.9215 | 0.105 | –
[1], 318.15 K, x1 = 0.966 | 0.051 | –
[2], 291.15 K, x1 = 0.0495 | – | 667.8
[2], 291.15 K, x1 = 0.1025 | – | 675.4
[2], 291.15 K, x1 = 0.1497 | – | 682.8
[2], 291.15 K, x1 = 0.2049 | – | 692.1
[2], 291.15 K, x1 = 0.2531 | – | 700.4
[2], 291.15 K, x1 = 0.3068 | – | 710.6
[2], 291.15 K, x1 = 0.3937 | – | 728.2
[2], 291.15 K, x1 = 0.5016 | – | 753
[2], 291.15 K, x1 = 0.6039 | – | 780
[2], 291.15 K, x1 = 0.6996 | – | 808.2
[2], 291.15 K, x1 = 0.7504 | – | 824.6
[2], 291.15 K, x1 = 0.8029 | – | 842.4
[2], 291.15 K, x1 = 0.9016 | – | 880.3
[2], 291.15 K, x1 = 0.9065 | – | 882.4
[2], 291.15 K, x1 = 0.9522 | – | 901.9
[2], 291.15 K, x1 = 0.958 | – | 905
[2], 291.15 K, x1 = 1 | – | 924.7
[2], 298.15 K, x1 = 0.0777 | – | 665.63
[2], 298.15 K, x1 = 0.1291 | – | 673.25
[2], 298.15 K, x1 = 0.1715 | – | 679.95
[2], 298.15 K, x1 = 0.2501 | – | 693.44
[2], 298.15 K, x1 = 0.327 | – | 707.73
[2], 298.15 K, x1 = 0.4765 | – | 739.84
[2], 298.15 K, x1 = 0.5354 | – | 754.13
[2], 298.15 K, x1 = 0.5955 | – | 769.95
[2], 298.15 K, x1 = 0.6441 | – | 783.83
[2], 298.15 K, x1 = 0.6993 | – | 800.39
[2], 298.15 K, x1 = 0.7956 | – | 832.38
[2], 298.15 K, x1 = 0.884 | – | 865.42
[2], 298.15 K, x1 = 0.9643 | – | 898.98
[2], 298.15 K, x1 = 1 | – | 915.16
[2], 308.15 K, x1 = 0.0485 | – | 651.9
[2], 308.15 K, x1 = 0.1103 | – | 660.5
[2], 308.15 K, x1 = 0.1539 | – | 667.2
[2], 308.15 K, x1 = 0.2548 | – | 683.8
[2], 308.15 K, x1 = 0.3998 | – | 711.6
[2], 308.15 K, x1 = 0.4915 | – | 731.9
[2], 308.15 K, x1 = 0.5935 | – | 757.8
[2], 308.15 K, x1 = 0.6998 | – | 788
[2], 308.15 K, x1 = 0.7971 | – | 819.9
[2], 308.15 K, x1 = 0.9063 | – | 860.7
[2], 308.15 K, x1 = 0.9488 | – | 878.7
[2], 308.15 K, x1 = 1 | – | 902.07
[2], 318.15 K, x1 = 0.0476 | – | 642.18
[2], 318.15 K, x1 = 0.0875 | – | 647.84
[2], 318.15 K, x1 = 0.1044 | – | 649.54
[2], 318.15 K, x1 = 0.1471 | – | 655.88
[2], 318.15 K, x1 = 0.2199 | – | 667.46
[2], 318.15 K, x1 = 0.3041 | – | 681.93
[2], 318.15 K, x1 = 0.4061 | – | 701.97
[2], 318.15 K, x1 = 0.5293 | – | 729.7
[2], 318.15 K, x1 = 0.5869 | – | 744.1
[2], 318.15 K, x1 = 0.6984 | – | 775.52
[2], 318.15 K, x1 = 0.7476 | – | 790.78
[2], 318.15 K, x1 = 0.7932 | – | 805.56
[2], 318.15 K, x1 = 0.8873 | – | 840.19
[2], 318.15 K, x1 = 0.9692 | – | 874.21
[2], 318.15 K, x1 = 1 | – | 888.42

CCCOC=O [propyl methanoate] + CCCCCC
Details | excess molar enthalpy [kcal/mol] | mass density [kg/m3]
[1], 291.15 K, x1 = 0.0969 | 0.118 | –
[1], 291.15 K, x1 = 0.186 | 0.187 | –
[1], 291.15 K, x1 = 0.2656 | 0.235 | –
[1], 291.15 K, x1 = 0.3316 | 0.264 | –
[1], 291.15 K, x1 = 0.3921 | 0.282 | –
[1], 291.15 K, x1 = 0.4458 | 0.289 | –
[1], 291.15 K, x1 = 0.4941 | 0.29 | –
[1], 291.15 K, x1 = 0.5356 | 0.287 | –
[1], 291.15 K, x1 = 0.5758 | 0.274 | –
[1], 291.15 K, x1 = 0.6321 | 0.258 | –
[1], 291.15 K, x1 = 0.6905 | 0.23 | –
[1], 291.15 K, x1 = 0.7533 | 0.195 | –
[1], 291.15 K, x1 = 0.8171 | 0.154 | –
[1], 291.15 K, x1 = 0.885 | 0.0993 | –
[1], 291.15 K, x1 = 0.9453 | 0.0458 | –
[1], 318.15 K, x1 = 0.0848 | 0.113 | –
[1], 318.15 K, x1 = 0.1889 | 0.202 | –
[1], 318.15 K, x1 = 0.2934 | 0.268 | –
[1], 318.15 K, x1 = 0.3854 | 0.305 | –
[1], 318.15 K, x1 = 0.4624 | 0.32 | –
[1], 318.15 K, x1 = 0.521 | 0.32 | –
[1], 318.15 K, x1 = 0.5945 | 0.309 | –
[1], 318.15 K, x1 = 0.6631 | 0.284 | –
[1], 318.15 K, x1 = 0.7368 | 0.245 | –
[1], 318.15 K, x1 = 0.8154 | 0.19 | –
[1], 318.15 K, x1 = 0.8906 | 0.124 | –
[1], 318.15 K, x1 = 0.9523 | 0.0594 | –
[2], 291.15 K, x1 = 0.0544 | – | 670.1
[2], 291.15 K, x1 = 0.0893 | – | 676
[2], 291.15 K, x1 = 0.1509 | – | 687.4
[2], 291.15 K, x1 = 0.2001 | – | 696.5
[2], 291.15 K, x1 = 0.248 | – | 705.8
[2], 291.15 K, x1 = 0.2521 | – | 706.6
[2], 291.15 K, x1 = 0.3979 | – | 737.6
[2], 291.15 K, x1 = 0.5017 | – | 761.8
[2], 291.15 K, x1 = 0.6122 | – | 789.6
[2], 291.15 K, x1 = 0.6985 | – | 813.1
[2], 291.15 K, x1 = 0.7473 | – | 827
[2], 291.15 K, x1 = 0.8013 | – | 842.8
[2], 291.15 K, x1 = 0.8499 | – | 857.8
[2], 291.15 K, x1 = 0.9057 | – | 875.5
[2], 291.15 K, x1 = 0.9568 | – | 892.9
[2], 291.15 K, x1 = 1 | – | 907.8
[2], 298.15 K, x1 = 0.0787 | – | 668.91
[2], 298.15 K, x1 = 0.1478 | – | 681.52
[2], 298.15 K, x1 = 0.2237 | – | 695.63
[2], 298.15 K, x1 = 0.2941 | – | 709.36
[2], 298.15 K, x1 = 0.3597 | – | 722.93
[2], 298.15 K, x1 = 0.4297 | – | 738.37
[2], 298.15 K, x1 = 0.4878 | – | 751.68
[2], 298.15 K, x1 = 0.5453 | – | 765.36
[2], 298.15 K, x1 = 0.6019 | – | 779.74
[2], 298.15 K, x1 = 0.6599 | – | 794.74
[2], 298.15 K, x1 = 0.7154 | – | 810
[2], 298.15 K, x1 = 0.765 | – | 824.15
[2], 298.15 K, x1 = 0.812 | – | 838.34
[2], 298.15 K, x1 = 0.8656 | – | 854.66
[2], 298.15 K, x1 = 0.921 | – | 872.18
[2], 298.15 K, x1 = 0.9567 | – | 884.05
[2], 298.15 K, x1 = 1 | – | 899.08
[2], 308.15 K, x1 = 0.0693 | – | 657.5
[2], 308.15 K, x1 = 0.1125 | – | 665.1
[2], 308.15 K, x1 = 0.1993 | – | 680.76
[2], 308.15 K, x1 = 0.3036 | – | 701.12
[2], 308.15 K, x1 = 0.3975 | – | 720.81
[2], 308.15 K, x1 = 0.5069 | – | 745.56
[2], 308.15 K, x1 = 0.5902 | – | 765.82
[2], 308.15 K, x1 = 0.7035 | – | 795.66
[2], 308.15 K, x1 = 0.8034 | – | 824.55
[2], 308.15 K, x1 = 0.9002 | – | 854.72
[2], 308.15 K, x1 = 0.9482 | – | 870.44
[2], 308.15 K, x1 = 1 | – | 888.36
[2], 318.15 K, x1 = 0.0796 | – | 648.93
[2], 318.15 K, x1 = 0.1547 | – | 661.76
[2], 318.15 K, x1 = 0.2278 | – | 674.93
[2], 318.15 K, x1 = 0.2909 | – | 687.08
[2], 318.15 K, x1 = 0.3611 | – | 701.46
[2], 318.15 K, x1 = 0.4273 | – | 715.75
[2], 318.15 K, x1 = 0.487 | – | 729.26
[2], 318.15 K, x1 = 0.5747 | – | 750.24
[2], 318.15 K, x1 = 0.6031 | – | 757.34
[2], 318.15 K, x1 = 0.6617 | – | 772.47
[2], 318.15 K, x1 = 0.7118 | – | 785.91
[2], 318.15 K, x1 = 0.7661 | – | 801.18
[2], 318.15 K, x1 = 0.8123 | – | 814.59
[2], 318.15 K, x1 = 0.8602 | – | 829.22
[2], 318.15 K, x1 = 0.9109 | – | 845.53
[2], 318.15 K, x1 = 0.9581 | – | 860.97
[2], 318.15 K, x1 = 1 | – | 875.32
